“And” between values parts separate entries of the source, which are not always exact repeats. Identical values can stand only once. Inconclusive results and toxic doses are left out.
Tested on: L1210 leukemia ip in BDF1 mice, survival T/C
Experiment: NCI In Vivo Anticancer Drug Screen. Data for tumor model L1210 Leukemia (intraperitoneal) in B6D2F1 (BDF1) mice
Settings: endpoint: mean survival time, higher = longer survival
How it was run: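 Tumor was transplanted into mice, which were then dosed with test compound or vehicle alone. Survival was recorded for each group, and the treated figure was expressed relative to the control figure.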

[1] = dose: 100.0 mg/kg/injection, schedule: Q01DX001 (ip), vehicle: saline with Tween-80
[2] = dose: 100.0 mg/kg/injection, schedule: Q01DX009 (ip), vehicle: saline with Tween-80
[3] = dose: 100.0 mg/kg/injection, schedule: Q04DX003 (ip), vehicle: saline with Tween-80
[4] = dose: 200.0 mg/kg/injection, schedule: Q01DX001 (ip), vehicle: saline with Tween-80
[5] = dose: 200.0 mg/kg/injection, schedule: Q01DX009 (ip), vehicle: saline with Tween-80
[6] = dose: 200.0 mg/kg/injection, schedule: Q04DX003 (ip), vehicle: saline with Tween-80
[7] = dose: 400.0 mg/kg/injection, schedule: Q04DX003 (ip), vehicle: saline with Tween-80
[8] = dose: 100.0 mg/kg/injection, schedule: Q01DX009 (ip), vehicle: Klucel (hydroxypropylcellulose) (HPC)
[9] = dose: 200.0 mg/kg/injection, schedule: Q01DX009 (ip), vehicle: Klucel (hydroxypropylcellulose) (HPC)
[10] = dose: 400.0 mg/kg/injection, schedule: Q01DX009 (ip), vehicle: Klucel (hydroxypropylcellulose) (HPC)
[11] = dose: 25.0 mg/kg/injection, schedule: Q01DX009 (ip), vehicle: saline with Tween-80
[12] = dose: 50.0 mg/kg/injection, schedule: Q01DX009 (ip), vehicle: saline with Tween-80

For CCC1CC2CC(c3cc4c(cc3OC)N(C)C3C(O)(C(=O)OC)C(OC(C)=O)C5(CC)C=CCN6CCC43C65)c3[nH]c4ccccc4c3CCN(C1)C2 (centres undefined), the T/C (dose: 0.25 mg/kg/injection, schedule: Q01DX009 (ip), vehicle: Klucel (hydroxypropylcellulose) (HPC)) was 100 % of control, the T/C (dose: 0.5 mg/kg/injection, schedule: Q01DX009 (ip), vehicle: Klucel (hydroxypropylcellulose) (HPC)) was 105 % of control and the T/C (dose: 1.0 mg/kg/injection, schedule: Q01DX009 (ip), vehicle: Klucel (hydroxypropylcellulose) (HPC)) was 101 % of control. For the same compound, the T/C (dose: 2.0 mg/kg/injection, schedule: Q01DX009 (ip), vehicle: Klucel (hydroxypropylcellulose) (HPC)) was 97 % of control, the T/C (dose: 4.0 mg/kg/injection, schedule: Q01DX009 (ip), vehicle: Klucel (hydroxypropylcellulose) (HPC)) was 110 % of control and the T/C (dose: 8.0 mg/kg/injection, schedule: Q01DX009 (ip), vehicle: Klucel (hydroxypropylcellulose) (HPC)) was 103 % of control.

CSc1ccc(OC(=O)Nc2cc(Cl)ccc2C)cc1 was tested, and the T/C [1] was 98 % of control, the T/C [2] was 95 % of control and 98 % of control and the T/C (dose: 100.0 mg/kg/injection, schedule: Q04DX002 (ip), vehicle: saline with Tween-80) was 97 % of control. The T/C [3] was 96 % of control, the T/C [4] was 96 % of control and the T/C [5] was 96 % of control and 103 % of control. The T/C (dose: 200.0 mg/kg/injection, schedule: Q04DX002 (ip), vehicle: saline with Tween-80) was 94 % of control and 101 % of control, the T/C [6] was 98 % of control and the T/C (dose: 400.0 mg/kg/injection, schedule: Q01DX001 (ip), vehicle: saline with Tween-80) was 93 % of control. For the same compound, the T/C (dose: 400.0 mg/kg/injection, schedule: Q04DX002 (ip), vehicle: saline with Tween-80) was 94 % of control and 105 % of control.

In the case of CCCCCOC(=O)Nc1cccc(OC(=O)NC)c1, the T/C [2] is reported as 105 % of control, the T/C [5] is reported as 96 % of control and the T/C (dose: 400.0 mg/kg/injection, schedule: Q01DX009 (ip), vehicle: saline with Tween-80) is reported as 97 % of control.

For COCCCN=C(N)N, the T/C (dose: 50.0 mg/kg/injection, schedule: Q04DX003 (ip), vehicle: saline) was 98 % of control, the T/C (dose: 100.0 mg/kg/injection, schedule: Q04DX003 (ip), vehicle: saline) was 104 % of control and the T/C (dose: 200.0 mg/kg/injection, schedule: Q04DX003 (ip), vehicle: saline) was 104 % of control.

With CC1(C)CC(N=Cc2ccccc2O)CC(C)(C)N1O.CC1(C)CC(N=Cc2ccccc2O)CC(C)(C)N1O.[Pd] the T/C [3] was 88 % of control, the T/C [6] was 90 % of control and the T/C [7] was 88 % of control.

Cc1c2ccncc2c(C)c2c1sc1ccccc12 was tested, and the T/C (dose: 5.0 mg/kg/injection, schedule: Q01DX009 (ip), vehicle: Klucel (hydroxypropylcellulose) (HPC)) was 106 % of control, the T/C (dose: 10.0 mg/kg/injection, schedule: Q01DX009 (ip), vehicle: Klucel (hydroxypropylcellulose) (HPC)) was 117 % of control and the T/C (dose: 20.0 mg/kg/injection, schedule: Q01DX009 (ip), vehicle: Klucel (hydroxypropylcellulose) (HPC)) was 124 % of control. The T/C (dose: 20.0 mg/kg/injection, schedule: Q01DX009 (ip), vehicle: other) was 113 % of control, the T/C (dose: 31.0 mg/kg/injection, schedule: Q01DX001 (ip), vehicle: other) was 105 % of control and the T/C (dose: 62.0 mg/kg/injection, schedule: Q01DX001 (ip), vehicle: other) was 111 % of control. For the same compound, the T/C (dose: 80.0 mg/kg/injection, schedule: Q01DX009 (ip), vehicle: other) was 121 % of control, the T/C (dose: 125.0 mg/kg/injection, schedule: Q01DX001 (ip), vehicle: other) was 121 % of control and the T/C (dose: 250.0 mg/kg/injection, schedule: Q01DX001 (oral), vehicle: other) was 112 % of control. For the same compound, the T/C (dose: 500.0 mg/kg/injection, schedule: Q01DX001 (ip), vehicle: other) was 187 % of control and the T/C (dose: 500.0 mg/kg/injection, schedule: Q01DX001 (oral), vehicle: other) was 112 % of control.

For Cc1cccc(Cl)c1NC(=O)Nc1cc([N+](=O)[O-])ccc1O, the T/C (dose: 25.0 mg/kg/injection, schedule: Q01DX009 (ip), vehicle: Klucel (hydroxypropylcellulose) (HPC)) was 91 % of control, the T/C (dose: 50.0 mg/kg/injection, schedule: Q01DX009 (ip), vehicle: Klucel (hydroxypropylcellulose) (HPC)) was 91 % of control and the T/C [8] was 96 % of control and 87 % of control. The T/C [9] was 91 % of control and the T/C [10] was 88 % of control.

In the case of CNC(=O)Nc1ccc(OC)cc1, the T/C [8] is reported as 96 % of control, the T/C (dose: 100.0 mg/kg/injection, schedule: Q04DX003 (ip), vehicle: Klucel (hydroxypropylcellulose) (HPC)) is reported as 110 % of control and the T/C [9] is reported as 100 % of control. The T/C (dose: 200.0 mg/kg/injection, schedule: Q04DX003 (ip), vehicle: Klucel (hydroxypropylcellulose) (HPC)) was 107 % of control, the T/C [10] was 102 % of control and the T/C (dose: 400.0 mg/kg/injection, schedule: Q04DX003 (ip), vehicle: Klucel (hydroxypropylcellulose) (HPC)) was 105 % of control.

COc1ccc(/C=N/NC(=O)CCCCCCCCC(=O)N/N=C/c2ccc(OC)c(OC)c2)cc1OC was tested, and the T/C [11] was 98 % of control and 105 % of control, the T/C [12] was 97 % of control and 101 % of control and the T/C [1] was 95 % of control. The T/C (dose: 100.0 mg/kg/injection, schedule: Q04DX002 (ip), vehicle: saline) was 90 % of control, the T/C [3] was 94 % of control and the T/C [4] was 114 % of control. For the same compound, the T/C (dose: 200.0 mg/kg/injection, schedule: Q04DX002 (ip), vehicle: saline) was 97 % of control and 90 % of control, the T/C [6] was 109 % of control and the T/C (dose: 400.0 mg/kg/injection, schedule: Q04DX002 (ip), vehicle: saline) was 101 % of control and 103 % of control. The T/C [7] was 96 % of control.

For CCOCc1cc([N+](=O)[O-])cc([N+](=O)[O-])c1O, the T/C (dose: 5.56 mg/kg/injection, schedule: Q01DX009 (ip), vehicle: saline with Tween-80) was 90 % of control, the T/C (dose: 8.33 mg/kg/injection, schedule: Q01DX009 (ip), vehicle: saline with Tween-80) was 108 % of control and the T/C (dose: 12.5 mg/kg/injection, schedule: Q01DX009 (ip), vehicle: saline with Tween-80) was 95 % of control. For the same compound, the T/C (dose: 18.7 mg/kg/injection, schedule: Q01DX009 (ip), vehicle: saline with Tween-80) was 104 % of control, the T/C [11] was 103 % of control and the T/C [12] was 93 % of control.

For C=CCCCCCCCCC(=O)O (tested in a mixture with another compound), the T/C (dose: 10.0 mg/kg/injection, schedule: Q01DX001 (ip), vehicle: carboxymethylcellulose (CMC)) was 93 % of control, the T/C (dose: 20.0 mg/kg/injection, schedule: Q01DX001 (ip), vehicle: carboxymethylcellulose (CMC)) was 104 % of control and the T/C (dose: 40.0 mg/kg/injection, schedule: Q01DX001 (ip), vehicle: carboxymethylcellulose (CMC)) was 106 % of control. For the same compound, the T/C (dose: 80.0 mg/kg/injection, schedule: Q01DX001 (ip), vehicle: carboxymethylcellulose (CMC)) was 101 % of control and the T/C (dose: 100.0 mg/kg/injection, schedule: Q01DX001 (ip), vehicle: carboxymethylcellulose (CMC)) was 97 % of control.

For CN(C)C1=CC(=O)C(N(C)C)=CC1=O, the T/C (dose: 100.0 mg/kg/injection, schedule: Q01DX001 (ip), vehicle: Klucel (hydroxypropylcellulose) (HPC)) was 110 % of control, the T/C (dose: 200.0 mg/kg/injection, schedule: Q01DX001 (ip), vehicle: Klucel (hydroxypropylcellulose) (HPC)) was 112 % of control and the T/C (dose: 400.0 mg/kg/injection, schedule: Q01DX001 (ip), vehicle: Klucel (hydroxypropylcellulose) (HPC)) was 105 % of control.

Nc1ncnc2c1c(C1=NCCCN1)cn2C1OC(CO)C(O)C1O (centres undefined) was tested, and the T/C (dose: 12.5 mg/kg/injection, schedule: Q01DX005 (ip), vehicle: saline) was 117 % of control and the T/C (dose: 50.0 mg/kg/injection, schedule: Q01DX005 (ip), vehicle: saline) was 151 % of control.

With CC(C)(C)C(=O)OCN1CCOCC1 the T/C (dose: 75.0 mg/kg/injection, schedule: Q01DX001 (ip), vehicle: saline) was 106 % of control, the T/C (dose: 150.0 mg/kg/injection, schedule: Q01DX001 (ip), vehicle: saline) was 103 % of control and the T/C (dose: 300.0 mg/kg/injection, schedule: Q01DX001 (ip), vehicle: saline) was 108 % of control.

With Cc1[nH]c(=O)[nH]c(=O)c1/C=C/C(=O)NC(CO)CC(C)C (centres undefined) the T/C (dose: 12.5 mg/kg/injection, schedule: Q01DX009 (ip), vehicle: saline) was 98 % of control, the T/C (dose: 25.0 mg/kg/injection, schedule: Q01DX009 (ip), vehicle: saline) was 102 % of control and 114 % of control and the T/C (dose: 50.0 mg/kg/injection, schedule: Q01DX009 (ip), vehicle: saline) was 98 % of control. The T/C (dose: 100.0 mg/kg/injection, schedule: Q01DX009 (ip), vehicle: saline) was 107 % of control and 108 % of control, the T/C (dose: 200.0 mg/kg/injection, schedule: Q01DX009 (ip), vehicle: saline) was 101 % of control and the T/C (dose: 300.0 mg/kg/injection, schedule: Q01DX009 (ip), vehicle: saline) was 114 % of control.

For CC(C)Nc1ccc(O)cc1, the T/C (dose: 100.0 mg/kg/injection, schedule: Q04DX002 (ip), vehicle: Klucel (hydroxypropylcellulose) (HPC)) was 106 % of control and the T/C (dose: 200.0 mg/kg/injection, schedule: Q04DX002 (ip), vehicle: Klucel (hydroxypropylcellulose) (HPC)) was 95 % of control.
